Measurements: patent US11174282B2, “Aminosteroid derivatives and process for producing same” (UNIVERSITÉ LAVAL, priority 2016, dated 2021)
Entries after “also recorded” stand apart in the source; their conditions may differ. Where two headings read alike, the source gives them in different places.

Columns and labels:
[1] = system: Human pancreas cancer cells (PANC-1); assay: Cell proliferation assay (MTS), PANC-1; format: cell-based; conditions: Homo sapiens, PANC-1, 72 h, 3 days treatment, MTS; read-out: IC50 (μM) Pancreatic cancer PANC-1
Description: (§1) The different aminosteroids were dissolved in methanol (50 mM).

[2] = system: T-47D breast cancer cell line; assay: Cell proliferation assay (MTS), T-47D; format: cell-based; conditions: 72 h; for IC50: Homo sapiens, T47D, 3 days treatment, MTS
Description: as §1

Water solubility = format: physicochemical; conditions: relative to RM-581-OH
[3] = Metabolic stability assay, human liver microsomes; conditions: 10 μM, 1 h, 40 μg human liver microsomes; result in words
Description: (§2) Assays were performed at 37° C. for 1 h, with or without 10 mM NADPH in the presence of 40 μg of human liver microsome from Corning (Melrose, Mass., USA) and 10 μM of aminosteroid substrate in a final 100 μL volume of 50 mM Tris buffer (pH 7.4) supplemented with 10 mM MgCl2. Assays were ended by adding 100 μL of MeOH followed by centrifugation at 13,000 g for 10 min to obtain a pellet of proteins. The supernatant of 2 assays was pooled and submitted to HPLC-MS analysis (Shimadzu LCMS-2020 APCI, Alltima HP C18 (250 mm×4.6 mm, 5 μm) column, MeOH:H2O gradient). Remaining substrate (expressed in %) was calculated by dividing the area under the curve of the substrate for the assays without NADPH by the area under the curve of the substrate for the assays with NADPH and multiplied by 100. Values represent the average of 2 independent experiments.

[4] = system: PC-3 (prostate cancer) cells; assay: Cell proliferation assay (MTS), PC-3; format: cell-based; conditions: 72 h, read-out: IC50 (μM) Prostate cancer PC-3
Description: as §1

[5] = system: MCF-7 breast cancer cells; assay: Cell proliferation assay (MTS), MCF-7; format: cell-based, human; conditions: 3 days treatment
Description: as §1

[6] = system: PANC-1, BxPC-3, Hs766, OVCAR-3, Caov3, SKOV3, MCF-7, T-47D and LAPC-4 cell lines; assay: Cytotoxic activity screening at 5 and 1 μM on cancer cell lines; conditions: independently of the cancer cell line tested, result in words
Description: The cell proliferation assay was performed using 3-(4,5-dimethylthiazol-2-yl)-5-(3-carboxymethoxyphenyl)2-(4-sulfophenyl)-2H-tetrazolium (MTS) (Cell Titer 96 Aqueous, Promega, Nepean, ON, Canada) as previously described [3, 4, 5]. Briefly, cells were plated in triplicate in 96-well plates (1×10^4 cells/well) in appropriate culture medium (total of 90 μL). Before each treatment, the cells were incubated at 37° C. in a 5% CO2 humidified atmosphere for 24 h. The different aminosteroids were dissolved in methanol (50 mM). The stock solutions were diluted at multiple concentrations with culture media in order to obtain the desired final concentration followed by the addition of 10 μL to each well, and the mixture incubated for 3 days. Following treatment, MTS (10 μL) was added to each well and the mixture was incubated for 4 h.

[7] = system: OVCAR-3 cells (ovarian cancer); assay: Cell proliferation assay (MTS), OVCAR-3; format: cell-based; conditions: Homo sapiens, OVCAR-3, 72 h, 3 days treatment, MTS; read-out: IC50 (μM) Ovarian cancer OVCAR-3
Description: as §1

[8] = system: LNCaP (prostate cancer) cells; assay: Cell proliferation assay (MTS), LNCaP; format: cell-based; conditions: Homo sapiens, 72 h, read-out: IC50 (μM) Prostate cancer LNCaP
Description: as §1

[9] = system: LAPC-4 (prostate cancer) cells; assay: Cell proliferation assay (MTS), LAPC-4; format: cell-based; conditions: Homo sapiens, LAPC4, 72 h, 3 days treatment, MTS; read-out: IC50 (μM) Prostate cancer LAPC-4
Description: as §1

[10] = human, microsomes, 1 h, 10 μM, pH 7.4
Description: as §2

[11] = system: human MCF-7 breast tumors; assay: MCF-7 tumor growth (xenograft) in ovariectomized nude mice; format: in vivo; conditions: 60 mg/kg s.c., 28-day treatment
Text: FIG. 2 is an illustration of the effect of aminosteroid RM-581-102 (compound 6) on MCF-7 tumor growth. A) Effect of a 28-day treatment on 17β-estradiol (E2)-induced growth of human MCF-7 breast tumors in ovariectomized (OVX) nude mice in accordance with an embodiment of the present disclosure. Tumor sizes are expressed as the percentage of initial tumor area (day 1 of treatment=100%). Data are expressed as the mean±SEM (n=10-12 tumors and 6-7 mice per group). […] B) Initial and final body weight of the mice.

[12] = system: renal proximal tubule epithelial cells (RPTEC); assay: Toxicity on normal cells (MTS), RPTEC; format: cell-based, human; conditions: Homo sapiens, RPTEC, normal (kidney) cells; read-out: IC50 (μM) RPTEC (normal cells)
Description: as §1

[13] = system: MCF-10A cells (model for normal breast cells); assay: Cell proliferation assay (MTS), MCF-10A; format: cell-based
Description: A selectivity index (SI) for RM-581-102 was calculated as the ratio of its IC50 value in MCF-10A cells, a cell line used as a model for normal breast cells, versus its IC50 value in MCF-7 breast cancer cells (Table 4). […] It would thus appear that the replacement of the 5α-androstane-3α,17β-diol backbone by that of mestranol, is beneficial for the selectivity of these aminosteroid derivatives.
as §1

in vivo = conditions: female, Balb/c, mouse
Description: The plasmatic concentration (AUC) of RM-581-102 was determined following four different methods of administration (s.c., p.o., i.v. and i.p.) at the following concentrations: 60 mg/kg of body weight in 0.1 mL for s.c. and p.o. administration; 2 mg/kg of body weight in 0.02 mL for i.v. caudal administration; and 20 mg/kg of body weight in 0.1 mL for i.p. administration. For the s.c., p.o. and i.p. administrations, RM-581-102 was first dissolved in DMSO followed by the addition of propylene glycol to obtain a final concentration of DMSO of 8%. Regarding the i.v. administration, RM-581-102 was first dissolved in DMSO (8%) followed by the addition of DMA (38%) and propylene glycol (60%). For the i.v. administration, the mice were fasted over a period of 8 h before injection of RM-581-102.
Animals: Six to seven week-old female Balb/c mice weighing approximately 18 g were obtained from Charles-River, Inc (St-Constant, Qc., Canada). The animals were acclimatized to environmental conditions (temperature: 22±3° C.; humidity: 50±20%; 12-h light/12-h dark cycles, lights on at 07:15 h) for at least 5 days before starting the experiment. The animals were housed three per cage and were allowed free access to water and a certified commercial rodent food (Rodent diet #T.2018.15, Harlan Teklad, Madison, Wis., U.S.A.). The experiments with the animals were conducted in an animal facility approved by the Canadian Council on Animal Care (CCAC) and the Association for Assessment and Accreditation of Laboratory Animal Care. The study was performed in accordance with the CCAC Guide for Care and Use of Experimental Animals. Institutional approval was obtained.
Assay: The pharmacokinetic study was carried out following four different methods of administration (s.c., p.o., i.v. and i.p.) of RM-581-102 at the following concentrations: 60 mg/kg of body weight in 0.1 mL for s.c. and p.o. administration; 2 mg/kg of body weight in 0.02 mL for i.v. caudal administration; and 20 mg/kg of body weight in 0.1 mL for i.p. administration. For the s.c., p.o. and i.p. administrations, RM-581-102 was first dissolved in DMSO followed by the addition of propylene glycol to obtain a final concentration of DMSO of 8%. Regarding the i.v. administration, RM-581-102 was first dissolved in DMSO (8%) followed by the addition of DMA (38%) and propylene glycol (60%). For the i.v. administration, the mice were fasted over a period of 8 h before injection of RM-581-102. Blood samples for the determination of RM-581-102 plasma concentrations were collected by cardiac puncture at target intervals ranging from 5 minutes to 24 hours post-dose administration from 3 mice/time point. The blood samples were collected in Microvette® potassium-EDTA (ethylenediamine tetra-acetic acid)-coated tubes (Sarstedt AG & Co, Germany) and centrifuged at 3200 rpm for 10 minutes at 4° C. The plasma was subsequently collected and stored at −80° C. until analysis by liquid chromatography/mass spectrometry/mass spectrometry (LC/MS/MS).
The plasma concentrations of RM-581-102 was determined by LC/MS/MS analysis using a procedure developed at CHUQ (CHUL)—Research Center (Bioanalytical Service). For extraction from the plasma, a plasma sample (100 μL) was transferred to individual tubes and 600 μL of ammonium acetate (1 mM) was added. A methanolic solution (50 μL) containing a deuterated steroid internal standard was then added to each tube. Samples were then transferred on Strata-X SPE columns (Phenomenex, Torrance, Calif., USA) and each column was washed with water and methanol:water (10:90, v/v). RM-581-102 was then eluted with 5 mL of methanol containing 1 mM ammonium acetate.

Structure (SMILES): C#C[C@@]1(O)CC[C@H]2[C@@H]3CCc4cc(OP(=O)(O)O)c(N5CCN(C(=O)[C@@H]6CCCN6C(=O)c6ccc7ccccc7n6)CC5)cc4[C@H]3CC[C@@]21C [Compound 5, (17β)-17-ethynyl-17-hydroxy-2-{4-[1-(quinolin-2-ylcarbonyl)-L-prolyl]piperazin-1-yl}estra-1,3,5(10)-trien-3-yl dihydrogen phosphate]
- IC50 [1]: 2.6 ± 0.1 µM
- IC50 [2]: 0.3 ± 0.05 µM
- water solubility (Water solubility): significant enhancement of water solubility
- metabolic stability (% of remaining compound) [3]: stability similar to its phenolic counterpart
- IC50 [4]: 1.3 ± 0.05 µM
- IC50 ([5]; Homo sapiens, MCF7, 72 h): 1.5 ± 0.3 µM
- cytotoxic activity in screening (cell survival) [6]: without adversely affecting the antiproliferative properties; also recorded: only slight differences in their respective levels of activity
- IC50 [7]: 4.6 ± 0.7 µM
- IC50 [8]: 0.6 ± 0.05 µM
- IC50 [9]: 0.3 ± 0.07 µM

Structure (SMILES): C#C[C@]1(O)CC[C@H]2[C@@H]3CCc4cc(OC)c(N5CCN(C(=O)[C@@H]6CCCN6C(=O)c6ccc7ccccc7n6)CC5)cc4[C@H]3CC[C@@]21C [RM-581, {4-[17α-Ethynyl-17I-hydroxy-3-methoxyestra-1,3,5(10)-trien-2-yl]piperazin-1-yl}[(2S)-1-(quinolin-2-ylcarbonyl)pyrrolidin-2-yl]methanone]
- metabolic stability (% of remaining compound) [10]: significantly more stable toward phase-I hepatic metabolism than RM-133
- IC50 [1]: 3.9 ± 0.9 µM
- IC50 [2]: 0.5 ± 0.05 µM
- cytotoxic activity compared with known antineoplastic agents ([2]; T-47D, 1.0 and 5 μM, vs paclitaxel, gemcitabine, fluorouacil, oxaliplatin, irinotecan): stronger cytotoxic activities at both concentrations
- behavioral changes, signs of toxicity and weight loss ([11]; compared with control groups): no behavioral changes, signs of toxicity and weight loss
- MCF-7 tumor growth (tumor size, % of initial tumor area) ([11]; 6 days per week, E2-stimulated OVX nude mice): complete blockade of tumor growth; also recorded: significant tumor regression from day 21 up to day 28
- IC50 [12]: > 50 µM
- IC50 ([13]; Homo sapiens, MCF-10A, model for normal breast cells): 16.8 µM
- times more selective compared to RM-133 ([13]; in vitro MCF-7 and MCF-10A cell models): 5.1 times
- Selectivity Index ([13]; ratio of IC50 in MCF-10A cells versus IC50 in MCF-7 cells): 15.3
- IC50 ([4]; 3 days treatment, MTS): 1.6 ± 0.3 µM
- IC50 [5]: 2.6 ± 0.3 µM
- IC50 ([5]; listed as RM-581-102): 1.1 ± 0.1 µM
- IC50 [7]: 5 ± 0.5 µM
- AUC(0-t) (in vivo; ip, 20 mg/kg): 11400 ng·h/mL
- concentration at 3 h (in vivo; ip, 20 mg/kg): 5300 ng/mL
- AUC(0-t) (in vivo; iv, 2 mg/kg): 595 ng·h/mL
- concentration at 3 h (in vivo; iv, 2 mg/kg): 300 ng/mL
- AUC(0-t) (in vivo; po, 60 mg/kg): 5540 ng·h/mL
- concentration at 3 h (in vivo; po, 60 mg/kg): 550 ng/mL
- AUC(0-t) (in vivo; sc, 60 mg/kg): 7760 ng·h/mL
- concentration at 3 h (in vivo; sc, 60 mg/kg): 600 ng/mL
- IC50 ([8]; 3 days treatment, MTS): 1.2 ± 0.6 µM
- IC50 [9]: 0.6 ± 0.3 µM
